# In patent US20250374926A1, “NOVEL DERIVATIVES OF NON-CODED AMINO ACIDS AND THEIR USE IN CROP PROTECTION” (FORTEPHEST LTD., priority 2022, published 2025):
# Experiments:
# Format in all cases: in vivo
# Sinapis = experiment: Post-emergence herbicidal effect on potted weeds; conditions: 2-3 true leaves, up to 5 mg/pot, scale 0 (dead plants) to 5 (healthy, as control)
# Procedure: (§1) Weed seeds were sawn in 0.3-liter pots containing medium-heavy clay-loam soil from organic fields (55% clay, 23% silt, 20% sand, 2% organic matter, pH 7.1). The experiment was conducted in a completely randomized design. Each treatment was replicated three times (3 pots). Each compound was typically tested on a weed panel which included Amaranth, Abutilon, Malva, Silybum, and Sinapis. The herbicides were applied at doses from 0 (control) to 5 mg/pot. The herbicides were applied on grown plants at stage 2-3 true leaves (post-emergence treatment). The plants were grown in the mesh house during the entire experiment. Plant development at 6, 12, 19, 26, and 32 days after application (DAA) was evaluated on a scale of 0 to 5, in which 0 represents dead plants, and 5 represents healthy plants similar or not different from Control. In the context of the invention, the herbicidal effect was expressed as a score calculated as an average of assessments of plants' vigor, height, and leaf color.
# Abutilon = experiment: Post-emergence herbicidal effect on potted weeds; conditions: 2-3 true leaves, up to 5 mg/pot, scale 0 (dead plants) to 5 (healthy, as control)
# Procedure: as §1
# Amaranth = experiment: Post-emergence herbicidal effect on potted weeds; conditions: 2-3 true leaves, up to 5 mg/pot, scale 0 (dead plants) to 5 (healthy, as control)
# Procedure: as §1
# Silybum = experiment: Post-emergence herbicidal effect on potted weeds; conditions: 2-3 true leaves, up to 5 mg/pot, scale 0 (dead plants) to 5 (healthy, as control)
# Procedure: as §1
# Trifolium = experiment: Post-emergence herbicidal effect on potted weeds; conditions: 2-3 true leaves, up to 5 mg/pot, scale 0 (dead plants) to 5 (healthy, as control)
# Procedure: as §1
# Malva = experiment: Post-emergence herbicidal effect on potted weeds; conditions: 2-3 true leaves, up to 5 mg/pot, scale 0 (dead plants) to 5 (healthy, as control)
# Procedure: as §1
# Lactuca = experiment: Post-emergence herbicidal effect on potted weeds; conditions: 2-3 true leaves, up to 5 mg/pot, scale 0 (dead plants) to 5 (healthy, as control)
# Procedure: as §1
# Lettuce seeds = experiment: Filter paper bioassay on germination and early development of Lettuce seeds; conditions: lowest concentration causing malformation of radicle or shoots, visually assessed six days after beginning, 0 to 1 mmol/l; for minimal effective concentration: 144 h, read-out: MEC, score (Minimal Effective Concentration, activity score) (converted)
# Procedure: Materials: Seeds of Lettuce R. (Super-Jericho, non-sterilized) were obtained from Ben Shahar Moshe Ltd., 99% purity. The test compounds listed in Table 3 below were synthesized de novo or purchased from different vendors. Bioassays: Filter Paper Bioassays with Lettuce seeds were performed following Bertin et al. 2009 with modifications as described below. Seeds were placed on Whatman no. 1 filter paper (Whatman, Middlesex, U.K.) in Petri dishes (10 seeds per plate) with 2.0 ml of an aqueous solution of test material in a concentration ranging from 0 (control) to 1 mmol/l. The Petri dishes were arranged in a tray tilted at a 45-degree angle and were kept in the dark for 48 hours. Then trays with plates were transferred to the growth chamber with a 6/18 dark/light cycle for four days. Each experiment was performed in at least two repeats.
# The development of plants' radicles and shoots was visually assessed six days after the beginning of the test to determine the Minimal Effective Concentration (MEC) of a test material. In the context of the invention, MEC is defined as the lowest concentration level of a test material that caused deviation (malformation of radicle or shoots).
# Solanum = experiment: Post-emergence herbicidal effect on potted weeds; conditions: 2-3 true leaves, up to 5 mg/pot, scale 0 (dead plants) to 5 (healthy, as control)
# Procedure: as §1
# Verbesina = experiment: Post-emergence herbicidal effect on potted weeds; conditions: 2-3 true leaves, up to 5 mg/pot, scale 0 (dead plants) to 5 (healthy, as control)
# Procedure: as §1
# Lettuce = experiment: Post-emergence herbicidal effect on potted weeds; conditions: 2-3 true leaves, up to 5 mg/pot, scale 0 (dead plants) to 5 (healthy, as control)
# Procedure: as §1
structure (smiles),measurement,setting,value
"CCOC(=O)CSc1ccc(F)c(Br)n1 [compound 7114, ethyl 2-[(6-bromo-5-fluoropyridin-2-yl)sulfanyl]acetate]","Average Herbicidal Effect, score",Sinapis,4
same,"Average Herbicidal Effect, score",Abutilon,5
same,"Average Herbicidal Effect, score",Amaranth,3
same,"Average Herbicidal Effect, score",Silybum,5
same,"Average Herbicidal Effect, score",Trifolium,4
same,"Average Herbicidal Effect, score",Malva,4
same,"Average Herbicidal Effect, score",Lactuca,5
same,minimal effective concentration,Lettuce seeds,< 1 µM
"CCOC(=O)COc1ccc(F)c(Br)n1 [compound 7118, ethyl [(6-bromo-5-fluoropyridin-2-yl)oxy]acetate]","Average Herbicidal Effect, score",Solanum,0
same,"Average Herbicidal Effect, score",Sinapis,1
same,"Average Herbicidal Effect, score",Abutilon,4
same,"Average Herbicidal Effect, score",Amaranth,1
same,"Average Herbicidal Effect, score",Silybum,1
same,"Average Herbicidal Effect, score",Verbesina,2
same,"Average Herbicidal Effect, score",Trifolium,2
same,"Average Herbicidal Effect, score",Malva,1
same,"Average Herbicidal Effect, score",Lactuca,3
same,"Average Herbicidal Effect, score",Lettuce,5
same,minimal effective concentration,Lettuce seeds,< 1 µM
"CCOCCOCCOC(=O)COc1ccc(F)c(Br)n1 [compound 7156, 2-(2-ethoxyethoxy)ethyl 2-[(6-bromo-5-fluoropyridin-2-yl)oxy]acetate]","Average Herbicidal Effect, score",Solanum,0
same,"Average Herbicidal Effect, score",Sinapis,1
same,"Average Herbicidal Effect, score",Abutilon,1
same,"Average Herbicidal Effect, score",Amaranth,1
same,"Average Herbicidal Effect, score",Silybum,1
same,"Average Herbicidal Effect, score",Verbesina,1
same,"Average Herbicidal Effect, score",Trifolium,2
same,"Average Herbicidal Effect, score",Malva,1
same,"Average Herbicidal Effect, score",Lactuca,2
same,"Average Herbicidal Effect, score",Lettuce,0
same,activity score,Lettuce seeds,5.5 score
"O=C(O)COc1ccc(F)c(Br)n1 [compound 7157, [(6-bromo-5-fluoropyridin-2-yl)oxy]acetic acid]","Average Herbicidal Effect, score",Solanum,0
same,"Average Herbicidal Effect, score",Sinapis,1
same,"Average Herbicidal Effect, score",Abutilon,3
same,"Average Herbicidal Effect, score",Amaranth,0
same,"Average Herbicidal Effect, score",Silybum,1
same,"Average Herbicidal Effect, score",Verbesina,0
same,"Average Herbicidal Effect, score",Trifolium,2
same,"Average Herbicidal Effect, score",Malva,1
same,"Average Herbicidal Effect, score",Lactuca,2
same,"Average Herbicidal Effect, score",Lettuce,1
same,minimal effective concentration,Lettuce seeds,1 µM
"CCOC(=O)Sc1csc(Cl)n1 [compound 7189, S-(2-chloro-1,3-thiazol-4-yl) O-ethyl carbonothioate]",minimal effective concentration,Lettuce seeds,10 µM
"O=C(O)c1csc(Cl)n1 [compound 7194, 2-chloro-1,3-thiazole-4-carboxylic acid]",minimal effective concentration,Lettuce seeds,100 µM
